Source: doi:10.1101/2025.11.20.689572v1 (biorxiv, 2025)
Where two headings read alike, the source gives them in different places.

Key:
5-HT1F = target: T1, 5-HT1F (Homo sapiens, UniProt P30939); assay: competitive radioligand binding, HEK293 membranes
T1 construct: gene HTR1F; full-length receptor; HEK293 cell membranes
Excerpt: competitive radioligand binding, HEK293 membranes on 5-HT1F

M4 = target: T2, M4 (Homo sapiens, UniProt P08173); assay: competitive radioligand binding, HEK293 membranes
T2 construct: gene CHRM4; full-length receptor; HEK293 with TRUPATH sensors (function)
T2 sequence (P08173 1-479): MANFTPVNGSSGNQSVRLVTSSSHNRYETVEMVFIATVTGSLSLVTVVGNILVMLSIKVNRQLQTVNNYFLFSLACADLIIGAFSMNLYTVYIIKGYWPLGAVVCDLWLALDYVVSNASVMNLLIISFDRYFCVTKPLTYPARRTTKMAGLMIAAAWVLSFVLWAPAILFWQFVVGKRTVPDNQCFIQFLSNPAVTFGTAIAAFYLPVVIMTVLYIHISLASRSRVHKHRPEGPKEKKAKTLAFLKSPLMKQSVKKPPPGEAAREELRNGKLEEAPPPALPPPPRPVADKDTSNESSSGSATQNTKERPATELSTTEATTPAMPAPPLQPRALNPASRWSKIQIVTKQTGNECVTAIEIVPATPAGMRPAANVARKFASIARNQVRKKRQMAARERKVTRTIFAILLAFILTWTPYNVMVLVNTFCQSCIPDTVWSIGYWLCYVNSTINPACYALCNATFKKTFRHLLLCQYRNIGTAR

M2 [1] = target: T3, M2 (Homo sapiens, UniProt P08172); assay: TRUPATH BRET2 G protein dissociation, HEK293; assay type: cell-based; settings: HBSS, […] HEPES pH […] °C; agonist mode
T3 construct: gene CHRM2; full-length receptor; HEK293 with TRUPATH sensors (function)
T3 sequence (P08172 1-466): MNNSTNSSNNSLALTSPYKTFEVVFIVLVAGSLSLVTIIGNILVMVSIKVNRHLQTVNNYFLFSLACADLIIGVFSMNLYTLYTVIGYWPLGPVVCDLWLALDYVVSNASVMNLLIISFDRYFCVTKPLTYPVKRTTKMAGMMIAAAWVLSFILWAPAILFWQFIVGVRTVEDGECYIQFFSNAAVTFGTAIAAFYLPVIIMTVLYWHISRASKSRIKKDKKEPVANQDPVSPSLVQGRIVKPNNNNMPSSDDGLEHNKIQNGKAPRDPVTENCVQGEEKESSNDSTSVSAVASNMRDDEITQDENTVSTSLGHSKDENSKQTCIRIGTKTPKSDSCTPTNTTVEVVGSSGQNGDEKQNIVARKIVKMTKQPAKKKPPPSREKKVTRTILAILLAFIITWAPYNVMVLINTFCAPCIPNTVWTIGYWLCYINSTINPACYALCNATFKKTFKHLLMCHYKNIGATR

M1 = target: T4, M1 (Homo sapiens, UniProt P11229); assay: competitive radioligand binding, HEK293 membranes
T4 construct: gene CHRM1; full-length receptor; HEK293 with TRUPATH sensors (function)
T4 sequence (P11229 1-460): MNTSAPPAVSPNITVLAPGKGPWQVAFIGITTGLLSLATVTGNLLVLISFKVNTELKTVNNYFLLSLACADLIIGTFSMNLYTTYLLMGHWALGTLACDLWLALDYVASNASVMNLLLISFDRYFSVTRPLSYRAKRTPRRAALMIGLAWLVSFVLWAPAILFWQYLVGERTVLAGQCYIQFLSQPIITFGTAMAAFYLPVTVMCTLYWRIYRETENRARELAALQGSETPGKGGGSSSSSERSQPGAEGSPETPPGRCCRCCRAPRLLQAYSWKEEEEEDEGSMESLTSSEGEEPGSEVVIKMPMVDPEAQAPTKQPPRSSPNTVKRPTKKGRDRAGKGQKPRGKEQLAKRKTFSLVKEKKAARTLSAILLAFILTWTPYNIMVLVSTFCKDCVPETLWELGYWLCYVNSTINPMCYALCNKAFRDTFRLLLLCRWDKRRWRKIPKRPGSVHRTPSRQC

M2 [2] = target: T3, M2; assay: competitive radioligand binding, HEK293 membranes
CHRM4 = target: T5, CHRM4 (Homo sapiens, UniProt P08173); assay: cell-based; design: species or system HEK293; GloSensor-22F cAMP assay, Gi-mediated inhibition of isoproterenol-stimulated cAMP; antagonist mode against agonist EC80; settings: Assay=Gi, agonist mode, % of control agonist
T5 sequence (P08173 1-479): T2 sequence (P08173 1-479)

CHRM2 = target: T6, CHRM2 (Homo sapiens, UniProt P08172); assay: cell-based; design: species or system HEK293; GloSensor-22F cAMP assay, Gi-mediated inhibition of isoproterenol-stimulated cAMP; antagonist mode against agonist EC80; settings: Assay=Gi, agonist mode, % of control agonist
T6 sequence (P08172 1-466): T3 sequence (P08172 1-466)

β2 = β2 (Homo sapiens, UniProt P07550); assay: biochemical; design: gene ADRB2; species or system HEK293; PDSP competitive radioligand binding, membranes of transfected HEK293 cells, filtration, Ki by Cheng-Prusoff
Chain of β2 (P07550 whole entry): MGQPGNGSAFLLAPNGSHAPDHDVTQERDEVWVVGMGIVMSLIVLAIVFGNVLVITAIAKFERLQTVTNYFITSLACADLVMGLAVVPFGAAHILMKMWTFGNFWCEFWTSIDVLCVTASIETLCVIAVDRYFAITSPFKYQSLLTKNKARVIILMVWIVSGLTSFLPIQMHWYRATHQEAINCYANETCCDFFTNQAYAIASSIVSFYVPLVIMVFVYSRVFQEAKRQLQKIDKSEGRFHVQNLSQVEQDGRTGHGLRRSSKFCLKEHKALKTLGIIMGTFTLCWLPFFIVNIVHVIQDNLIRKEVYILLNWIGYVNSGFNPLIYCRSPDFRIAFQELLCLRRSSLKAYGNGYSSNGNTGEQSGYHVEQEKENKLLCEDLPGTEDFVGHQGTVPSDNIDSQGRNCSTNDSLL
Protocol: Competitive radioligand binding assays were performed at the NIMH Psychoactive Drug Screening Program (PDSP) using membranes from transiently transfected HEK293 cells in 96-well format as described. Complete, target-specific protocols are available at the PDSP website (https://pdsp.unc.edu/pdspweb/?site=assays). Primary screenings were run at a single test concentration (10 µM) in quadruplicate. […] Secondary assays were conducted in triplicate using 12-point serial dilutions (0, 0.1, 0.3, 1, 3, 10, 30, 100, 300 nM; 1, 3, 10 µM). Assays were performed in a final volume of 125 µL per well in binding buffer, as detailed in the NIMH PDSP protocols (e.g., standard binding buffer: 50 mM Tris-HCl, pH 7.4, 10 mM MgCl2, 0.1 mM EDTA). Radioligand concentrations were chosen near the target-specific Kd. […] After 90 min incubation at room temperature, reactions were terminated by vacuum filtration onto 0.3% polyethyleneimine-pretreated UniFilter-96 GF/C Microplates using a FilterMate harvester, washed three times with ice-cold buffer (50 mM Tris HCl, pH 7.4), dried, treated with MicroScint-O [compound left out] scintillation cocktails, and counted on a MicroBeta counter. Equilibrium inhibition constants (Ki) were calculated from fitted IC50 values using the Cheng–Prusoff equation [14] with the assay-specific radioligand concentration and Kd. […] ND=not determined.

[3] = HEK293, read-out: N-Desmethyl Xanomeline

T1 sequence (P30939 whole entry): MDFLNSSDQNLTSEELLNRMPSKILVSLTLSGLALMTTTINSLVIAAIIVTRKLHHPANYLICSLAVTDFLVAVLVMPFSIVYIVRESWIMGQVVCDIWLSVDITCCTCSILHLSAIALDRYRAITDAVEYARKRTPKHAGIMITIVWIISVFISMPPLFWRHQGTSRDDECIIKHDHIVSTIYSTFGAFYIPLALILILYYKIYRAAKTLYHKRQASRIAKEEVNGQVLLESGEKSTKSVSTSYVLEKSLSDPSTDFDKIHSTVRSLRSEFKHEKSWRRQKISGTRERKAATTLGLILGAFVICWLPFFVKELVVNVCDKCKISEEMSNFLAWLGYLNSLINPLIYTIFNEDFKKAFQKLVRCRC

| Structure (SMILES) | Ki (5-HT1F) [nM] | Ki (M4) [nM] | EC50 (M2 [1]) | Ki (M1) [nM] | Ki (M2 [2]) [nM] | Emax (CHRM4; [3]) [%] | Emax (CHRM2; [3]) [%] | Ki (β2) [nM] | Emax (CHRM4; HEK293, read-out: Xanomeline) [%] | Emax (CHRM2; HEK293, read-out: Xanomeline) [%] |
| --- | --- | --- | --- | --- | --- | --- | --- | --- | --- | --- |
| CCCCCCOc1nsnc1C1=CCCNC1 [N-desmethylxanomeline] | 224 | 117 | differential activation of M1-M5 muscarinic receptor transducers | 219 | 1450 | 84.4 | 107 | – | – | – |
| CCCCCCOc1nsnc1C1=CCCN(C)C1 [Xanomeline] | 759 | – | differential activation of M1-M5 muscarinic receptor transducers | – | – | – | – | > 10000 | 87.2 | 85.9 |
